Data reported in ChEMBL document CHEMBL1158338, “Synthesis of (+/-)Abyssinone I and related compounds: Their anti-oxidant and cytotoxic activities” (Eur J Med Chem, 2009).
Activity calls are given as the source filed them.

Assays:
[1] = Antioxidant activity assessed as ferric ion reducing activity at 200 ug after 20 mins by UV-visible spectrophotometry; assay type: functional
[2] = system: Radical scavenging activity; assay: Antioxidant activity assessed as DPPH radical scavenging activity at 200 ug after 30 mins by UV-visible spectrophotometry; assay type: functional
[3] = system: MCF7; assay: Cytotoxicity against human MCF7 cells at 25 to 150 uM after 72 hrs by MTT assay; assay type: functional, cell-based

Measured: Activity

COc1ccc(/C=C/C(=O)c2ccc(O)cc2O)cc1CC=C(C)C
active: [1] | [2] | [3]

CC(C)=CCc1cc(/C=C/C(=O)c2ccc(O)cc2O)ccc1O
active: [1] | [2] | [3]

CC1(C)C=Cc2cc(/C=C/C(=O)c3ccc(O)cc3O)ccc2O1
active: [1] | [2] | [3]

CC1(C)C=Cc2cc(C3CC(=O)c4ccc(O)cc4O3)ccc2O1 (centres undefined)
active: [1] | [2] | [3]

CC1(C)CCc2cc(/C=C/C(=O)c3ccc(O)cc3O)ccc2O1
active: [1] | [2] | [3]

COc1ccc(C2CC(=O)c3ccc(O)cc3O2)cc1 (centres undefined)
active: [1] | [2] | [3]

CC(C)=CCc1cc(C2CC(=O)c3ccc(O)cc3O2)ccc1O (centres undefined)
active: [1] | [2] | [3]

COc1ccc(/C=C/C(=O)c2ccc(O)cc2O)cc1
active: [1] | [2] | [3]

O=C(/C=C/c1ccc(O)cc1)c1ccc(O)cc1O
active: [1] | [2] | [3]

O=C1C[C@@H](c2ccc(O)cc2)Oc2cc(O)ccc21
active: [1] | [2] | [3]

CC(C)=CCOc1ccc(/C=C/C(=O)c2ccc(O)cc2O)cc1
active: [1] | [2] | [3]

CC1(C)CCc2cc(C3CC(=O)c4ccc(O)cc4O3)ccc2O1 (centres undefined)
active: [1] | [2] | [3]

COc1ccc(C2CC(=O)c3ccc(O)cc3O2)cc1CC=C(C)C (centres undefined)
active: [1] | [2] | [3]
